Values of other authors in patent US20070065374A1, “Nanoparticulate leukotriene receptor antagonist/corticosteroid formulations” (Elan Pharma International Limited, priority 2005, published 2007).
Where two headings read alike, the source gives them in different places.

Legend:
[1] = for time to peak plasma concentrations: after oral administration
[2] = since the approval of zafirlukast

SMILES	time to peak plasma concentrations [1]	reduction of bioavailability by food ([1]; oral, in 75% of patients)	Churg-Strauss syndrome reported [2]	effect of food on oral bioavailability ([1]; 5 mg tablet (pediatric dose))	effect of food on oral bioavailability ([1]; 10 mg tablet (adult dose))
COc1cc(C(=O)NS(=O)(=O)c2ccccc2C)ccc1Cc1cn(C)c2ccc(NC(=O)OC3CCCC3)cc12 [Zafirlukast]	approximately three	approximately 40%	at least eight		
CC(C)(O)c1ccccc1CC[C@@H](SCC1(CC(=O)O)CC1)c1cccc(/C=C/c2ccc3ccc(Cl)cc3n2)c1 [Montelukast]	approximately three			reduced by food	unaffected by food
